Data from patent publication US20230372481A1 (priority 2020, published 2023).
“And” between values parts separate entries of the source, which are not always exact repeats. Equal entries are not always repeated. Where two headings read alike, the source gives them in different places.

Columns and labels:
CD45RA− memory T cells [1] = format: cell-based, human; conditions: for IFNγ production WITH IL15 X3, CD45RA− / IFNγ production WITH IL15 X3, CD45RA− CD3+ / IFNγ production WITH IL15 X3, CD45RA− CD3+ CD4+ / IFNγ production WITH IL15 X3, CD45RA− CD3+ CD8+ / FOLD INCREASE OF IFNγ PRODUCTION, CD45RA− / FOLD INCREASE OF IFNγ PRODUCTION, CD45RA− CD3+ / FOLD INCREASE OF IFNγ PRODUCTION, CD45RA− CD3+ CD4+ / FOLD INCREASE OF IFNγ PRODUCTION, CD45RA− CD3+ CD8+: three peptivators
CD45RA− memory T cells [2] = assay: Phenotypic characterization of CD45RA− memory T cells in the presence of IL-15 (Table 11); format: cell-based, human; conditions: for Fold change CD127lowCD25+ (Treg): CD45RA−CD4+ subset
CD45RA− memory T cells [3] = test system: CD45RA− memory T cells;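 for Fold change increase, % CD45RA−: memory T cells from a convalescent donor cultured overnight or 72 h, surface markers read by flow cytometry, fold change versus a parallel culture lacking IL15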;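 for Fold change increase, CD3+ CCR7: memory T cells from a convalescent donor cultured overnight or 72 h, surface markers read by flow cytometry, fold change versus a parallel culture lacking IL15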;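 for Fold change increase, CD3+ CD25+: memory T cells from a convalescent donor cultured overnight or 72 h, surface markers read by flow cytometry, fold change versus a parallel culture lacking IL15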;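 for Fold change increase, CD3+ CD69 BV421 high: memory T cells from a convalescent donor cultured overnight or 72 h, surface markers read by flow cytometry, fold change versus a parallel culture lacking IL15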
Method: CD45RA− memory T cells from the convalescent donor where thawed and incubated in Tex MACs media TexMACS Medium (Miltenyi Biotec, Germany) supplemented with 5% AB serum (Sigma-Aldrich, Saint Louis, Missouri, USA) plus 50 ng/ml of IL15 o/n and for 72 hours. After that time the cells were harvested and the phenotypic assay was performed. The same culture without IL15 was run in parallel as a control.
Cell surface staining was performed for 20 minutes at 4 degrees with the following fluorochrome conjugated antibodies titrated to their optimal concentrations: 7AAD (BD Horizon), CD45RA FITC (BD Pharmingen), CD3 viogreen (Miltenyi Biotec), CD4 PECy7 (BD Pharmingen), CD8 APC Cy7 (BD Pharmingen), CD27 APC (BD Pharmingen). For the Treg panel CD25 BV421 (BD Horizon), and CD127 PE-CF594 (BD Horizon), was used. For the activation panel HLA-DR BV 421 (BD Pharmingen), CD69 BV421 (Biolegend), CD25 BV421 (BD Horizon), was used. For the exhaustion panel PD1 AF700 (Biolegend), NKG2D BV421 (Biolegend) was used. For the cytokine panel CD103 BV421 (BD Horizon) and CCR7 PE-CF594 (BD Horizon) was used. An average of 200.000 cells was acquired. Cell acquisition was performed using a FACS Canto. The analysis was performed using FlowJo 9.9.6 (FlowJo LLC).

[4] = DAY 3 (72 hours) with IL-15 50 ng/ml
[5] = DAY 3, with minus without IL-15, three peptivators
[6] = O/N, with minus without IL-15, three peptivators
[7] = CD3+ subset, IL-15 for 72 hours
[8] = CD4+ subset, IL-15 for 72 hours
[9] = CD8+ subset, IL-15 for 72 hours
[10] = IL-15 72 hours vs control with no cytokine
[11] = IL-15 o/n vs control with no cytokine
[12] = IL15 (3 days) 50 ng/ml vs no cytokine
[13] = IL15 (3 days) 50 ng/ml vs no cytokine, listed as IL-15
[14] = IL15 (o.n.) 50 ng/ml vs no cytokine

## IL15: cytokine fundamental for memory T cells that induces the activation, the proliferation and the survival of T cells
CD45RA− memory T cells [1]; [4]
  IFNγ production WITH IL15 X3, CD45RA−: 1.9
  IFNγ production WITH IL15 X3, CD45RA− CD3+: 1.7
  IFNγ production WITH IL15 X3, CD45RA− CD3+ CD4+: 1.5
  IFNγ production WITH IL15 X3, CD45RA− CD3+ CD8+: 2.7
CD45RA− memory T cells [1]; [5]
  IFNγ production W-WO, CD45RA−: 1.6
  IFNγ production W-WO, CD45RA− CD3+: 1.4
  IFNγ production W-WO, CD45RA− CD3+ CD4+: 1.1
  IFNγ production W-WO, CD45RA− CD3+ CD8+: 2.4
CD45RA− memory T cells [1]; DAY 3 with IL-15 vs without
  FOLD INCREASE OF IFNγ PRODUCTION, CD45RA−: 5.3 fold
  FOLD INCREASE OF IFNγ PRODUCTION, CD45RA− CD3+: 5.8 fold
  FOLD INCREASE OF IFNγ PRODUCTION, CD45RA− CD3+ CD4+: 3.8 fold
  FOLD INCREASE OF IFNγ PRODUCTION, CD45RA− CD3+ CD8+: 11.6 fold
CD45RA− memory T cells [1]; O/N with IL-15 50 ng/ml
  IFNγ production WITH IL15 X3, CD45RA−: 3.8
  IFNγ production WITH IL15 X3, CD45RA− CD3+: 3.8
  IFNγ production WITH IL15 X3, CD45RA− CD3+ CD4+: 3.8
  IFNγ production WITH IL15 X3, CD45RA− CD3+ CD8+: 4.6
CD45RA− memory T cells [1]; O/N with IL-15 vs without
  FOLD INCREASE OF IFNγ PRODUCTION, CD45RA−: 19.2 fold
  FOLD INCREASE OF IFNγ PRODUCTION, CD45RA− CD3+: 13.6 fold
  FOLD INCREASE OF IFNγ PRODUCTION, CD45RA− CD3+ CD4+: 12.5 fold
  FOLD INCREASE OF IFNγ PRODUCTION, CD45RA− CD3+ CD8+: 14.8 fold
CD45RA− memory T cells [1]; [6]
  IFNγ production W-WO, CD45RA−: 3.6
  IFNγ production W-WO, CD45RA− CD3+: 3.5
  IFNγ production W-WO, CD45RA− CD3+ CD4+: 3.5
  IFNγ production W-WO, CD45RA− CD3+ CD8+: 4.3
CD45RA− memory T cells [1]; WITH IL15 PEPX3 72 hours
  % Memory T cells, % CD45RA−: 84%
  % Memory T cells, % CD45RA−CD3+: 95.1%
  % Memory T cells, % CD45RA−CD3+ CD4+: 91.2%
  % Memory T cells, % CD45RA−CD3+ CD8+: 3.45%
CD45RA− memory T cells [1]; WITH IL15 PEPX3 o/n
  % Memory T cells, % CD45RA−: 97.7%
  % Memory T cells, % CD45RA−CD3+: 94.9%
  % Memory T cells, % CD45RA−CD3+ CD4+: 91%
  % Memory T cells, % CD45RA−CD3+ CD8+: 6.23%
CD45RA− memory T cells [2]; [7]
  Fold change CD25+ (T cell activation marker): 13.16
  Fold change CD69+ (T cell activation marker): 26
  Fold change HLA-DR+ high (T cell activation marker): 1.21
  Fold change NKG2A+ (T cell exhaustion marker): 0.77
  Fold change PD1+ high (T cell exhaustion marker): 3.43
CD45RA− memory T cells [2]; CD3+ subset, IL-15 o/n
  Fold change CD25+ (T cell activation marker): 2.11
  Fold change CD69+ (T cell activation marker): 3.82
  Fold change HLA-DR+ high (T cell activation marker): 1.11
  Fold change NKG2A+ (T cell exhaustion marker): 0.61
  Fold change PD1+ high (T cell exhaustion marker): 1.43
CD45RA− memory T cells [2]; [8]
  Fold change CD25+ (T cell activation marker): 9.88
  Fold change CD69+ (T cell activation marker): 27.82
  Fold change HLA-DR+ high (T cell activation marker): 1.22
  Fold change NKG2A+ (T cell exhaustion marker): 2.67
  Fold change PD1+ high (T cell exhaustion marker): 3.41
CD45RA− memory T cells [2]; CD4+ subset, IL-15 o/n
  Fold change CD25+ (T cell activation marker): 2.12
  Fold change CD69+ (T cell activation marker): 4.48
  Fold change HLA-DR+ high (T cell activation marker): 0.97
  Fold change NKG2A+ (T cell exhaustion marker): 0.39
  Fold change PD1+ high (T cell exhaustion marker): 1.35
CD45RA− memory T cells [2]; [9]
  Fold change CD25+ (T cell activation marker): 105
  Fold change CD69+ (T cell activation marker): 6.48
  Fold change HLA-DR+ high (T cell activation marker): 1.61
  Fold change NKG2A+ (T cell exhaustion marker): 1.23
  Fold change PD1+ high (T cell exhaustion marker): 2.97
CD45RA− memory T cells [2]; CD8+ subset, IL-15 o/n
  Fold change CD25+ (T cell activation marker): 14.27
  Fold change CD69+ (T cell activation marker): 2.10
  Fold change HLA-DR+ high (T cell activation marker): 1.32
  Fold change NKG2A+ (T cell exhaustion marker): 0.73
  Fold change PD1+ high (T cell exhaustion marker): 1.51
CD45RA− memory T cells [2]; IL-15 for 72 hours vs day 0 WO IL15
  Fold change CD127lowCD25+ (Treg): 7.88
CD45RA− memory T cells [2]; IL-15 o/n vs day 0 WO IL15
  Fold change CD127lowCD25+ (Treg): 1.85
CD45RA− memory T cells [2]; IL-15 72 hours
  Fold time change of exhaustion marker NKG2A, CD45RA−CD3+ cells: 0.77 fold
  Fold time change of exhaustion marker PD-1, CD45RA−CD3+ cells: 3.43 fold
CD45RA− memory T cells [2]; [10]
  Fold increase of activation marker CD25, CD45RA− CD3+ cells: 13.26 fold
  Fold increase of activation marker CD69, CD45RA− CD3+ cells: 26 fold
  Fold increase of activation marker HLA-DR, CD45RA− CD3+ cells: 1.21 fold
CD45RA− memory T cells [2]; IL-15 o/n
  Fold time change of exhaustion marker NKG2A, CD45RA−CD3+ cells: 0.61 fold
  Fold time change of exhaustion marker PD-1, CD45RA−CD3+ cells: 1.43 fold
CD45RA− memory T cells [2]; [11]
  Fold increase of activation marker CD25, CD45RA− CD3+ cells: 2.28 fold
  Fold increase of activation marker CD69, CD45RA− CD3+ cells: 3.82 fold
  Fold increase of activation marker HLA-DR, CD45RA− CD3+ cells: 1.11 fold
CD45RA− memory T cells [3]; [12]
  Fold change increase, % CD45RA−: 1.0 fold
  Fold change increase, CD3+ CCR7: 1 fold and 1.0 fold
  Fold change increase, CD3+ CD25+: 8.5 fold
  Fold change increase, CD3+ CD69 BV421 high: 29.6 fold
  Fold change increase, CD3+ CD103: 1.2 fold
  Fold change increase, CD3+ HLA-DR+: 2.6 fold
  Fold change increase, CD3+ NKG2A+: 1.4 fold
  Fold change increase, CD3+ PD1 AF700: 8.7 fold
  Fold change increase, CD4+ CCR7: 1.0 fold
  Fold change increase, CD4+ CD25+: 8.6 fold
  Fold change increase, CD4+ CD69 BV421 high: 59.8 fold
  Fold change increase, CD4+ CD103: 1.0 fold
  Fold change increase, CD4+ HLA-DR+: 2.4 fold
  Fold change increase, CD4+ NKG2A+: 0.6 fold
  Fold change increase, CD4+ PD1 AF700: 9.1 fold
  Fold change increase, CD8+ CCR7: 1.4 fold
  Fold change increase, CD8+ CD25+: 36.4 fold
  Fold change increase, CD8+ CD69 BV421 high: 5.6 fold
  Fold change increase, CD8+ CD103: 1.4 fold
  Fold change increase, CD8+ HLA-DR+: 1.9 fold
  Fold change increase, CD8+ NKG2A+: 1.2 fold
  Fold change increase, CD8+ PD1 AF700: 6.1 fold
  Fold change increase, CD45RA− % CD3+: 1.0 fold
  Fold change increase, CD45RA− % CD4+: 1.0 fold
  Fold change increase, CD45RA− % CD8+: 1.1 fold
  Fold change increase, CD45RA− CD4+ CD27+ (CM): 1.0 fold
  Fold change increase, CD45RA− CD4+ CD27− (EM): 0.9 fold
  Fold change increase, CD45RA− CD4+ CD127lowCD25+ (Treg): 2.0 fold
  Fold change increase, CD45RA− CD8+ CD27+ (CM): 1.0 fold
  Fold change increase, CD45RA− CD8+ CD27− (EM): 1.0 fold
CD45RA− memory T cells [3]; [13]
  Fold change increase, CD3+ CCR7: No modification
  Fold change increase, CD3+ CD25+: 8.6 fold
CD45RA− memory T cells [3]; [14]
  Fold change increase, % CD45RA−: 1.0 fold
  Fold change increase, CD3+ CCR7: 1.0 fold
  Fold change increase, CD3+ CD25+: 1.5 fold
  Fold change increase, CD3+ CD69 BV421 high: 3.2 fold
  Fold change increase, CD3+ CD103: 0.7 fold
  Fold change increase, CD3+ HLA-DR+: 1.2 fold
  Fold change increase, CD3+ NKG2A+: 0.7 fold
  Fold change increase, CD3+ PD1 AF700: 0.7 fold
  Fold change increase, CD4+ CCR7: 1.0 fold
  Fold change increase, CD4+ CD25+: 1.5 fold
  Fold change increase, CD4+ CD69 BV421 high: 2.9 fold
  Fold change increase, CD4+ CD103: 0.7 fold
  Fold change increase, CD4+ HLA-DR+: 1.2 fold
  Fold change increase, CD4+ NKG2A+: 1.2 fold
  Fold change increase, CD4+ PD1 AF700: 0.8 fold
  Fold change increase, CD8+ CCR7: 1.5 fold
  Fold change increase, CD8+ CD25+: 4.4 fold
  Fold change increase, CD8+ CD69 BV421 high: 2.8 fold
  Fold change increase, CD8+ CD103: 0.9 fold
  Fold change increase, CD8+ HLA-DR+: 1.2 fold
  Fold change increase, CD8+ NKG2A+: 0.8 fold
  Fold change increase, CD8+ PD1 AF700: 1.7 fold
  Fold change increase, CD45RA− % CD3+: 1.0 fold
  Fold change increase, CD45RA− % CD4+: 1.0 fold
  Fold change increase, CD45RA− % CD8+: 0.8 fold
  Fold change increase, CD45RA− CD4+ CD27+ (CM): 1.0 fold
  Fold change increase, CD45RA− CD4+ CD27− (EM): 0.9 fold
  Fold change increase, CD45RA− CD4+ CD127lowCD25+ (Treg): 1.3 fold
  Fold change increase, CD45RA− CD8+ CD27+ (CM): 1.1 fold
  Fold change increase, CD45RA− CD8+ CD27− (EM): 0.9 fold
CD45RA− memory T cells [3]; IL15 (o.n.) 50 ng/ml vs no cytokine, listed as IL-15
  Fold change increase, CD3+ CCR7: No modification
